Patent publication US20090253745A1, “MODULATORS OF OCULAR OXIDATIVE STRESS” (SIRION THERAPEUTICS, INC., priority 2007, published 2009)
Blank lines part the entries; values can stand above or below the molecule they belong to.

Tests used:
[1] = system: intact lenses dissected from wild-type mouse eyeglobes; test: Ex vivo lens toxicity test, isolated lenses incubated 2 days; details: 8 mM, 37 C, positive control for lens toxicity
Description: (§1) FIG. 3. Ex vivo lens toxicity test of TAPP1. The eyeglobes of mice (aged 42 days) were cultured overnight either with control solution (media containing 45% β-cyclodextrin) or TAPP1 (TAPP1 in media containing 45% β-cyclodextrin), at 37° C. overnight, and in 95% air/5% CO2. […] To determine the effects of TAPP1 on isolated lenses, intact lenses were dissected from wild-type mouse eyeglobes, and incubated in DMEM media in a 96 well tissue culture plate. Groups of 3-6 lenses were incubated in 200 μl of media alone (negative control), 4% (2-hydroxypropyl)-β-cyclodextrin (carrier control), 8 mM hydrogen peroxide (H2O2, positive control for lens toxicity), 4 mM TAPP1-O (free radical form), 4 mM TAPP1-R (reduced form), and 4 mM of the two products of TAPP1-R hydrolysis (HP-1 and HP-2), respectively. β-cyclodextrin was included as a carrier control because all of the stock solutions contained 45% (2-hydroxypropyl)-β-cyclodextrin. The samples were incubated in 5% CO2 incubator at 37 C for 2 days.
(§2) The TAPP compositions are intended for topical delivery to the anterior portion of the eye. […] Morphological or anatomical effects are determined by comparison of TAPP-treated samples to samples incubated with either the TAPP vehicle or samples which are exposed (10 min treatment) to 100% ethanol (a positive control for lens toxicity). […]

[2] = Pharmacokinetics and ocular tissue distribution of total radioactivity after single topical dose in mice; assay type: in vivo, ABCA4+/−/SOD+/− mice
Description: (§3) FIG. 13. Pharmacokinetics and ocular tissue distribution of total radioactivity following single topical dose administration of [^14C]Compound 14 in mice. Seven ABCA4+/−/SOD+/− mice were used for this study. The mice were anesthetized and drug was administered as described above. At each specified time post dosing (0 min, 15 min, 30 min, 1 hr, 2 hr, 4 hr and 6 hr), one mouse was sacrificed by cervical dislocation and both eyeballs were enucleated. Each eyeball was rinsed in 1 ml fresh PBS to wash off unabsorbed drug. The right eye was analyzed intact. From the left eye, the following tissues were harvested: lens, anterior segment, retina and posterior segment. Total radioactivity of all tissues was determined using a liquid scintillation analyzer. […] Peak drug concentration in all tissues occurred at ˜1 hr.
as §3, with “Seven” for “FIG. 13. Pharmacokinetics and ocular tissue distribution of total radioactivity following single topical dose administration of [^14C]Compound 14 in mice. Seven”, “and an ophthalmic formulation of Compound 14, prepared as described above,” for “and drug”, “administered topically to the eye.” for “administered as described above.”

[3] = system: oxidation of ABTS to ABTS^•+ radical cation by metmyoglobin; test: In vitro anti-oxidant assay: inhibition of metmyoglobin-mediated oxidation of ABTS to ABTS•+ (absorbance at 750 nm); assay type: biochemical
[4] = Pharmacokinetics and ocular tissue distribution of total radioactivity after single topical dose in rabbit; assay type: in vivo, New Zealand White rabbits
Description: (§4) FIG. 14. Pharmacokinetics and ocular tissue distribution of total radioactivity following single topical dose administration of [^14C]Compound 14 in rabbit. Four New Zealand White rabbits, age 3-4 months, weight 2.7 to 3.2 kg were used for this study. The rabbits were anesthetized and drug was administered as described above. At each specified time post dosing (0.5, 1, 2, and 4 hr), blood was collected from the ear vein of one rabbit and recovered serum volume was recorded. Rabbits were sacrificed by asphyxiation and both eyeballs were enucleated. Each eyeball was rinsed in 10 ml fresh PBS to wash off unabsorbed drug. The following tissues were harvested from each eye: anterior segment, lens, vitreous body, retina and posterior segment (without retina). Total radioactivity of each tissue and in serum was determined using a liquid scintillation analyzer (Packard Tri-Carb 2100TR). CPM was converted to DPM, and quantity of the drug (pmole) absorbed in each tissue was calculated based on specific activity (average DPM in tissues from left and right eyes). The serum level of the drug was determined as concentration (pmole/ml). [^14C]Compound 14 was rapidly taken into ocular tissues (within ˜15 min) and peak drug concentration in all tissues occurred at ˜0.5 hr.
as §4, with “Four” for “FIG. 14. Pharmacokinetics and ocular tissue distribution of total radioactivity following single topical dose administration of [^14C]Compound 14 in rabbit. Four”, “and an ophthalmic formulation of Compound 14” for “and drug”, “administered topically to the eye.” for “administered as described above.”

eyeglobes of mice = test: Ex vivo lens toxicity test, whole eyeglobes cultured overnight; details: brief treatment (10 min) with 100% ethanol, positive control
Description: as §1, §2

Compound: OO [Compound H2O2, hydrogen peroxide]
cataract in isolated lenses [1]: caused obvious cataract

ocular tissues with lower concentrations [2]: lens and retina
ocular tissues with the highest concentrations [2]: anterior and posterior segments
time of peak drug concentration in all tissues [2]: ~1 h
time until uptake into ocular tissues [2]: ≤ 15 min
IC50 ([3]; 0-500 μM compound, 15 μM ABTS, 2.5 μM metmyoglobin, 80 μM hydrogen peroxide, room temperature): ~10 µM
amount in vitreous body [4]: intermediate amount
ocular tissues with the highest recovery [4]: anterior and posterior segments
recovery in retina and lens, lower than in anterior and posterior segments [4]: approximately 10 fold
time of peak drug concentration in all tissues [4]: ~0.5 h
time until uptake into ocular tissues [4]: ≤ 15 min
Compound: CC1(C)CC(OCCCCCC(O)/C=C/C(=O)O)CC(C)(C)N1O (stereo not shown) [[^14C]Compound 14]
dose-response of anti-oxidation activity ([3]; 0, 5, 10, 20, 50, 100, 200 and 500 μM): dose-dependent anti-oxidation activity

Compound: CCO [ethanol, reference compound]
cataract formation in eyeglobes (eyeglobes of mice): caused cataract formation
